In US8999957B2, “Heterocyclic compounds as ERK inhibitors” (Merck Sharp & Dohme Corp., priority 2010, dated 2015):
Where two headings read alike, the source gives them in different places.

Target: fully phosphorylated, mouse aERK2 enzyme (Mus musculus (Mouse), UniProt P63085)
Test: Active ERK2 (aERK) IMAP-FP assay, condition 2
Format: biochemical
Outline: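 Phosphorylation by fully phosphorylated mouse ERK2 ran 40-45 min, then quenched with IMAP beads (1:1000) in binding buffer; fluorescence polarization read after 30 min binding equilibration.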

[1] = active ERK2, read-out: aErk2 Ic50
[2] = aERK assay condition 2, 30 uM ATP, read-out: aERK IC50

Sequence of fully phosphorylated, mouse aERK2 enzyme (P63085 whole entry): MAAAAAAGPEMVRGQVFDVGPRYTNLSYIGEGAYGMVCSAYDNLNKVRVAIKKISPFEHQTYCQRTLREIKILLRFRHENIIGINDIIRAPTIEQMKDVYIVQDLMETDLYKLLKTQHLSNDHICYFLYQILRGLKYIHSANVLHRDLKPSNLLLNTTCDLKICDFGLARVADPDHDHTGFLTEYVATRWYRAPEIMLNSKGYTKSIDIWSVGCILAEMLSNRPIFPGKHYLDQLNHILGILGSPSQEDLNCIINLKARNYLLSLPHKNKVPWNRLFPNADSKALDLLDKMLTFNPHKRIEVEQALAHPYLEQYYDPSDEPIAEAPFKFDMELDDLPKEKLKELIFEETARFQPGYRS

Row | SMILES | IC50 [1] | IC50 [2]
1 | COc1cccc(F)c1CN1C[C@H](NC(=O)c2ccc3[nH]nc(-c4ccnc(C)c4)c3c2)CC[C@H]1C(=O)NCCOCc1ccccc1 [N-[(3R,6S)-6-{[2-(benzyloxy)ethyl]-carbamoyl}-1-(2-fluoro-6-methoxybenzyl)-piperidin-3-yl]-3-(2-methylpyridin-4-yl)-1H-indazole-5-carboxamide] | 121 nM | 
2 | CCNC(=O)N1CCN(C(=O)[C@@H]2CC[C@@H](NC(=O)c3ccc4[nH]nc(-c5ccnc(C)c5)c4c3)CN2Cc2c(F)cccc2OC)CC1 [N-[(3R,6S)-6-{[4-(ethylcarbamoyl)piperazin-1-yl]carbonyl}-1-(2-fluoro-6-methoxy-benzyl)piperidin-3-yl]-3-(2-methylpyridin-4-yl)-1H-indazole-5-carboxamide] | 16.4 nM | 
3 | COc1ccc(NC(=O)[C@@H]2CC[C@@H](NC(=O)c3ccc4[nH]nc(-c5ccnc(C)c5)c4c3)CN2Cc2c(F)cccc2OC)cc1F [N-{(3R,6S)-1-(2-fluoro-6-methoxybenzyl)-6-[(3-fluoro-4-methoxyphenyl)carbamoyl]piperidin-3-yl}-3-(2-methylpyridin-4-yl)-1H-indazole-5-carboxamide] |  | 16.7 nM
4 | COc1cccc(F)c1CN1C[C@H](NC(=O)c2ccc3[nH]nc(-c4ccnc(C)c4)c3c2)CC[C@H]1C(=O)Nc1cccc(F)c1 [N-{(3R,6S)-1-(2-fluoro-6-methoxybenzyl)-6-[(3-fluorophenyl)carbamoyl]piperidin-3-yl}-3-(2-methylpyridin-4-yl)-1H-indazole-5-carboxamide] |  | 15.2 nM
5 | COc1cccc(F)c1CN1C[C@H](NC(=O)c2ccc3[nH]nc(-c4ccnc(C)c4)c3c2)CC[C@H]1C(=O)Nc1ccc(F)cc1 [N-{(3R,6S)-1-(2-fluoro-6-methoxybenzyl)-6-[(4-fluorophenyl)carbamoyl]piperidin-3-yl}-3-(2-methylpyridin-4-yl)-1H-indazole-5-carboxamide] |  | 23.4 nM
6 | COc1ccc(N(C)C(=O)[C@@H]2CC[C@@H](NC(=O)c3ccc4[nH]nc(-c5ccnc(C)c5)c4c3)CN2Cc2c(F)cccc2OC)cc1 [N-{(3R,6S)-1-(2-fluoro-6-methoxybenzyl)-6-[(4-methoxyphenyl)(methyl)carbamoyl]piperidin-3-yl}-3-(2-methylpyridin-4-yl)-1H-indazole-5-carboxamide] |  | 5.8 nM
7 | COc1ccc(NC(=O)[C@@H]2CC[C@@H](NC(=O)c3ccc4[nH]nc(-c5ccnc(C)c5)c4c3)CN2Cc2c(F)cccc2OC)cc1 [N-{(3R,6S)-1-(2-fluoro-6-methoxybenzyl)-6-[(4-methoxyphenyl)carbamoyl]piperidin-3-yl}-3-(2-methylpyridin-4-yl)-1H-indazole-5-carboxamide] |  | 11.6 nM
8 | COc1ccnc(NC(=O)[C@@H]2CC[C@@H](NC(=O)c3ccc4[nH]nc(-c5ccnc(C)c5)c4c3)CN2Cc2c(F)cccc2OC)c1 [N-{(3R,6S)-1-(2-fluoro-6-methoxybenzyl)-6-[(4-methoxypyridin-2-yl)carbamoyl]piperidin-3-yl}-3-(2-methylpyridin-4-yl)-1H-indazole-5-carboxamide] |  | 50.2 nM
9 | COc1cccc(F)c1CN1C[C@H](NC(=O)c2ccc3[nH]nc(-c4ccnc(C)c4)c3c2)CC[C@H]1C(=O)N1CCN(C)CC1 [N-{(3R,6S)-1-(2-fluoro-6-methoxybenzyl)-6-[(4-methylpiperazin-1-yl)carbonyl]piperidin-3-yl}-3-(2-methylpyridin-4-yl)-1H-indazole-5-carboxamide] | 32.5 nM | 
10 | COc1cccc(F)c1CN1C[C@H](NC(=O)c2ccc3[nH]nc(-c4ccnc(C)c4)c3c2)CC[C@H]1C(=O)Nc1ccc(C)nc1 [N-{(3R,6S)-1-(2-fluoro-6-methoxybenzyl)-6-[(6-methylpyridin-3-yl)carbamoyl]piperidin-3-yl}-3-(2-methylpyridin-4-yl)-1H-indazole-5-carboxamide] |  | 6.7 nM
11 | COc1cccc(F)c1CN1C[C@H](NC(=O)c2ccc3[nH]nc(-c4ccnc(C)c4)c3c2)CC[C@H]1C(=O)N1CCN(C(=O)OC2CCCC2)CC1 [cyclopentyl 4-{[(2S,5R)-1-(2-fluoro-6-methoxybenzyl)-5-({[3-(2-methylpyridin-4-yl)-1H-indazol-5-yl]carbonyl}amino)piperidin-2-yl]carbonyl}piperazine-1-carboxylate] | 31 nM | 
12 | CCOC(=O)N1CCN(C(=O)[C@@H]2CC[C@@H](NC(=O)c3ccc4[nH]nc(-c5ccnc(C)c5)c4c3)CN2Cc2c(F)cccc2OC)CC1 [ethyl 4-{[(2S,5R)-1-(2-fluoro-6-methoxy-benzyl)-5-({[3-(2-methylpyridin-4-yl)-1H-indazol-5-yl]carbonyl}amino)piperidin-2-yl]carbonyl}piperazine-1-carboxylate] | 20.5 nM | 
13 | COC(=O)N1CCN(C(=O)[C@@H]2CC[C@@H](NC(=O)c3ccc4[nH]nc(-c5ccnc(C)c5)c4c3)CN2Cc2c(F)cccc2OC)CC1 [methyl 4-{[(2S,5R)-1-(2-fluoro-6-methoxy-benzyl)-5-({[3-(2-methylpyridin-4-yl)-1H-indazol-5-yl]carbonyl}amino)piperidin-2-yl]carbonyl}piperazine-1-carboxylate] | 17.9 nM | 
14 | COc1cccc(F)c1CN1C[C@H](NC(=O)c2ccc3[nH]nc(-c4ccnc(C)c4)c3c2)CC[C@H]1C(=O)N1CCN(C(=O)OC2CCOCC2)CC1 [tetrahydro-2H-pyran-4-yl 4-{[(2S,5R)-1-(2-fluoro-6-methoxybenzyl)-5-({[3-(2-methylpyridin-4-yl)-1H-indazol-5-yl]carbonyl}amino)piperidin-2-yl]carbonyl}piperazine-1-carboxylate] | 18.8 nM | 

Other lines, results leading:

Row | IC50 [1] | IC50 [2] | SMILES
15 |  | 4.7 nM | COc1cccc(F)c1CN1C[C@H](NC(=O)c2ccc3[nH]nc(-c4ccnc(C)c4)c3c2)CC[C@H]1C(=O)NC1(C)CC1 [N-{(3R,6S)-1-(2-fluoro-6-methoxybenzyl)-6-[(1-methylcyclopropyl)carbamoyl]piperidin-3-yl}-3-(2-methylpyridin-4-yl)-1H-indazole-5-carboxamide]
16 | 46.5 nM |  | COc1cccc(F)c1CN1C[C@H](NC(=O)c2ccc3[nH]nc(-c4ccnc(C)c4)c3c2)CC[C@H]1C(=O)NC(C)C [N-{(3R,6S)-1-(2-fluoro-6-methoxybenzyl)-6-[(1-methylethyl)carbamoyl]piperidin-3-yl}-3-(2-methylpyridin-4-yl)-1H-indazole-5-carboxamide]
17 | 46.5 nM |  | COc1cccc(F)c1CN1C[C@H](NC(=O)c2ccc3[nH]nc(-c4ccnc(C)c4)c3c2)CC[C@H]1C(=O)NCC(F)(F)F [N-{(3R,6S)-1-(2-fluoro-6-methoxybenzyl)-6-[(2,2,2-trifluoroethyl)carbamoyl]piperidin-3-yl}-3-(2-methylpyridin-4-yl)-1H-indazole-5-carboxamide]
18 | 5.6 nM |  | COc1cccc(F)c1CN1C[C@H](NC(=O)c2ccc3[nH]nc(-c4ccnc(C)c4)c3c2)CC[C@H]1C(=O)NCCO [N-{(3R,6S)-1-(2-fluoro-6-methoxybenzyl)-6-[(2-hydroxyethyl)carbamoyl]piperidin-3-yl}-3-(2-methylpyridin-4-yl)-1H-indazole-5-carboxamide]
19 | 56.7 nM |  | COCCNC(=O)[C@@H]1CC[C@@H](NC(=O)c2ccc3[nH]nc(-c4ccnc(C)c4)c3c2)CN1Cc1c(F)cccc1OC [N-{(3R,6S)-1-(2-fluoro-6-methoxybenzyl)-6-[(2-methoxyethyl)carbamoyl]piperidin-3-yl}-3-(2-methylpyridin-4-yl)-1H-indazole-5-carboxamide]
20 |  | 1.1 nM | COc1cccc(F)c1CN1C[C@H](NC(=O)c2ccc3[nH]nc(-c4ccnc(C)c4)c3c2)CC[C@H]1C(=O)N1CC(C)(O)C1 [N-{(3R,6S)-1-(2-fluoro-6-methoxybenzyl)-6-[(3-hydroxy-3-methylazetidin-1-yl)carbonyl]piperidin-3-yl}-3-(2-methylpyridin-4-yl)-1H-indazole-5-carboxamide]
21 | 11.2 nM |  | COc1cccc(F)c1CN1C[C@H](NC(=O)c2ccc3[nH]nc(-c4ccnc(C)c4)c3c2)CC[C@H]1C(=O)N(C)OC [N-{(3R,6S)-1-(2-fluoro-6-methoxybenzyl)-6-[methoxy(methyl)carbamoyl]piperidin-3-yl}-3-(2-methylpyridin-4-yl)-1H-indazole-5-carboxamide]
22 | 57 nM |  | CCCN(C)C(=O)[C@@H]1CC[C@@H](NC(=O)c2ccc3[nH]nc(-c4ccnc(C)c4)c3c2)CN1Cc1c(F)cccc1OC [N-{(3R,6S)-1-(2-fluoro-6-methoxybenzyl)-6-[methyl(propyl)carbamoyl]piperidin-3-yl}-3-(2-methylpyridin-4-yl)-1H-indazole-5-carboxamide]
23 | 7 nM |  | COc1cccc(F)c1CN1C[C@H](NC(=O)c2ccc3[nH]nc(-c4ccnc(C)c4)c3c2)CC[C@H]1C(=O)N1CCN(C(=O)OC(C)(C)C)CC1 [tert-butyl 4-{[(2S,5R)-1-(2-fluoro-6-methoxy-benzyl)-5-({[3-(2-methylpyridin-4-yl)-1H-indazol-5-yl]carbonyl}amino)piperidin-2-yl]carbonyl}piperazine-1-carboxylate]
24 | 18.9 nM |  | COc1cccc(F)c1CN1C[C@H](NC(=O)c2ccc3[nH]nc(-c4ccnc(C)c4)c3c2)CC[C@H]1C(=O)NCCNC(=O)OC(C)(C)C [tert-butyl [2-({[(2S,5R)-1-(2-fluoro-6-methoxybenzyl)-5-({[3-(2-methylpyridin-4-yl)-1H-indazol-5-yl]carbonyl}amino)piperidin-2-yl]carbonyl}amino)ethyl]carbamate]
25 | 16.9 nM |  | COc1cccc(F)c1CN1C[C@H](NC(=O)c2ccc3[nH]nc(-c4ccnc(C)c4)c3c2)CC[C@H]1C(=O)NCCCNC(=O)OC(C)(C)C [tert-butyl [3-({[(2S,5R)-1-(2-fluoro-6-methoxybenzyl)-5-({[3-(2-methylpyridin-4-yl)-1H-indazol-5-yl]carbonyl}amino)piperidin-2-yl]carbonyl}amino)propyl]carbamate]
26 | 90.3 nM |  | COc1cccc(F)c1CN1C[C@H](NC(=O)c2ccc3[nH]nc(-c4ccnc(C)c4)c3c2)CC[C@H]1C(=O)N(C)CCCCNC(=O)OC(C)(C)C [tert-butyl {4-[{[(2S,5R)-1-(2-fluoro-6-methoxybenzyl)-5-({[3-(2-methylpyridin-4-yl)-1H-indazol-5-yl]carbonyl}amino)piperidin-2-yl]carbonyl}(methyl)amino]butyl}carbamate]
